Target: T1, NE (Homo sapiens, UniProt P08246)
T1 sequence (P08246 30-267): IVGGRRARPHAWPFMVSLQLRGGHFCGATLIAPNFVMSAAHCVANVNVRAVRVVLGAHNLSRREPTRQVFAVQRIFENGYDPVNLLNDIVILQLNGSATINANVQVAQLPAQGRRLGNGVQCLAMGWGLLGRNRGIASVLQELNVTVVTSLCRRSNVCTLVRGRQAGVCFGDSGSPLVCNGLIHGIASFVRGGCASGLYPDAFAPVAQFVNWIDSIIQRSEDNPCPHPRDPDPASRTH
Experiment: Chemiluminescence and fluorescence changes of BTPDNe and MPDNe in the presence of NE (response, selectivity, LOD, half-life)
Format: biochemical
Description: Chemiluminescence and fluorescence changes of BTPDNe (20 μM) were determined in the presence of NE (0.1 U/ml), other different enzymes (˜0.1 U/mL, APN, ALP, Cas-3, cat B, GGT, β-gal and NTR) in 50 mM Tris, 1 M NaCl, 0.05% (w/v) Brij-35, pH 7.5 at 37° C. after 30 min incubation.
Chemiluminescence and fluorescence changes of BTPDNe and MPDNe (20 μM) in the presence of NE (0.1 U/mL), or other different enzymes (˜0.1 U/mL, APN, ALP, Cas-3, Cat B, GGT, β-gal, NTR, CatG and PR3) were tested after 30 min incubation in 50 mM Tris, 1 M NaCl, 0.05% (w/v) Brij-35, pH 7.5 at 37° C.
To determine the LOD for NE enzyme detection, the chemiluminescence of BTPDNe was recorded in 50 mM Tris, 1 M NaCl, 0.05% (w/v) Brij-35, pH 7.5 at 37° C. with different concentrations of NE (0, 0.05, 0.1, 0.5, 1, and 2 U/ml) for 30 min incubation. Then, initial reaction velocity was calculated.

## COC1(c2ccc(-c3nc4ccccc4s3)c(OCc3ccc(NC(=O)[C@@H](NC(=O)[C@@H]4CCCN4C(=O)[C@H](C)NC(=O)[C@H](C)NC(C)=O)C(C)C)cc3)c2)OOC12C1CC3CC(C1)CC2C3 (stereo partly drawn) [BTPDNe]
APN, ALP, Cas-3, cat B, GGT, furin, β-gal, NTR, PR3, CatG (~0.1 U/mL)
  selectivity towards NE over other enzymes: high selectivity
At 515 nm, probe 20 μM, NE 0.1 U/mL, 30 min
  fluorescence increase after incubation with NE: 20.1 fold
Probe 20 μM, NE 0.1 U/mL, 50 mM Tris, 1 M NaCl, 0.05% Brij-35, pH 7.5, 37° C., 30 min, BTPDNe at 515 nm, MPDNe at 550 nm
  chemiluminescence enhancement after incubation with NE: ~42.3 fold
